Assay [1] addresses T1, Tyrosine-protein phosphatase non-receptor type 1 [1-301] (Homo sapiens, UniProt P18031).
T1 construct: 1-301
T1 sequence (P18031 whole entry): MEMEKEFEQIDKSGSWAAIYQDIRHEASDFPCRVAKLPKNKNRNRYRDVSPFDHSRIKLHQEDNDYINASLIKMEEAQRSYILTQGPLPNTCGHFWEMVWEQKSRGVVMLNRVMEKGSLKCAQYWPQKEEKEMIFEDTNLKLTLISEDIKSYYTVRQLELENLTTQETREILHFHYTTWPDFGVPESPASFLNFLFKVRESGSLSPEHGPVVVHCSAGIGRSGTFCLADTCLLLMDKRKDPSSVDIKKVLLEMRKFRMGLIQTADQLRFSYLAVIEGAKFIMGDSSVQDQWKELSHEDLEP
Description: NMR Chemical Shift Titration Assay.

Assay [2] concerns the target T1, Tyrosine-protein phosphatase non-receptor type 1 [1-301]. Description: PTP1B Inhibition Assay. As for the experimental part: Kinetic parameters were determined by fitting the reaction rates to different inhibition models as a function of the inhibitor and pNPP concentrations using GraphPad Prism version 6.0d. The total reaction volume in all cases was 500 μL, and the temperature was maintained at 25 °C using a water-regulated cuvette holder.

The values that follow come from BindingDB's records for doi:10.1021/acs.biochem.6b01025 (Washington College, 2017).

Molecules are shown by their SMILES.

The term Kd denotes the constant that tells how readily two partners part at equilibrium. What is called Ki is the equilibrium dissociation constant of an inhibitor or competing ligand from its target. A low value points to higher affinity.

Consider `O=C(/C=C/c1ccc(O)c(O)c1)O[C@@H](C(=O)O)[C@@H](OC(=O)/C=C/c1ccc(O)c(O)c1)C(=O)O` [Cichoric acid (CHA)], for which the Kd in assay [1] came to 1600 µM. This compound also came in with a Ki in assay [2] of 1400 µM.
